Assay results reported in patent US20060100140A1, “Combination of a) n-{5-[4-(4-methyl-piperazino-methyl)-benzoylamido]2-methylphenyl}-4- (3-pyridyl)-2-pyrimidine-amine and b) a histone deacetylase inhibitor for the treatment of leukemia” (priority 2002, published 2006).

Legend:
Format in all cases: cell-based, human
phospho-JNK = assay: Western analysis of phospho-JNK in K562 cells; settings: 2.0 μM SAHA ± 250 nM Compound I, 16 hr
Method: Immunoblot Analysis: Immunoblotting is performed as described previously (Yu et al., Nat. Rev. Cancer 1:294-202). In brief, after drug treatment cells are pelleted by centrifugation, and lysed immediately in Laemmli buffer [1×=30 mM Tris-base (pH 6.8), 2% SDS, […] β-mercaptoethanol, and 10% glycerol], and briefly sonicated. Homogenates are quantified using Coomassie protein assay reagent (Pierce, Rockford, Ill.). Equal amounts of protein (20 μg) are boiled for 10 min, separated by SDS-PAGE (5% stacker and 10% resolving), and electroblotted to nitrocellulose membrane. After blocking in TBS-T (0.05%) and 5% milk for 1 h at 22° C., the blots are incubated in fresh blocking solution with an appropriate dilution of primary antibody for 4 h at 22° C. […]
K562 cells are treated as above, and monitored for expression of Bcl-xL, Mcl-1, and XIAP. […]

[1] = tested on: cytochrome c, AIF, and Smac/DIABLO; assay: Western analysis of release of cytochrome c, AIF and Smac/DIABLO into S-100 cytosolic fraction; settings: K562; Compound I (250 nM), SAHA (2.0 μM); 24 hr
K562 cells [2] = assay: Apoptosis by morphological analysis of Wright Giemsa-stained cytospin preparations; settings: for percentage of apoptotic cells: Table 2A, 2.0 μM SAHA ± 250 nM Compound I; for % of apoptotic cells: Table 5, K562: SAHA […]
Method: (§1) Experimental Format: Logarithmically growing cells are placed in sterile plastic T-flasks (Corning, Corning, N.Y.) to which are added the designated drugs and the flasks replaced in the incubator for intervals. At the end of the incubation period, cells are transferred to sterile centrifuge tubes, pelleted by centrifugation at 400×g for 10 min at room temperature, and prepared for analysis as described below.
(§2) Assessment of Apoptosis: After drug exposures, cytocentrifuge preparations are stained with Wright-Giemsa and viewed by light microscopy to evaluate the extent of apoptosis (i.e., cell shrinkage, nuclear condensation, formation of apoptotic bodies, etc.) as described previously (Yu et al., Nat. Rev. Cancer 1:294-202). For these studies, the percentage of apoptotic cells is determined by evaluating ≧500 cells/condition in triplicate. To confirm the results of morphological analysis, Annexin V/PI staining is used. Annexin V/PI (BD PharMingen, San Diego, Calif.) analysis of cell death is carried out as per the manufacturer's instructions. In studies involving TNF and TNF soluble receptor, both compound are combined and maintained at room temperature 20 min prior to use. For these experiments 1-2×10^5 cells per condition are harvested. Analysis is carried out using a Becton-Dickinson FACScan cytofluorometer (Mansfield, Mass.). To further confirm the morphology results, TUNEL staining is used. For TUNEL staining, cytocentrifuge preparations are obtained and fixed with 4% formaldehyde. The slides are treated with acetic acid/ethanol (1:2), stained with terminal transferase reaction mixture containing 1× terminal transferase reaction buffer (0.25 units/μl terminal transferase, 2.5 mM CoCl2, and 2 pmol fluorescein-12-dUTM; Boehringer Mannheim, Indianapolis, Ind.), and visualized using fluorescence microscopy.

U937 monocytic leukemia = assay: Apoptosis by Wright Giemsa-stained cytospin slides; settings: U937: SAHA 1.5 μM; Compound I 250 nM; 24 hr
Method: as §1, §2

[3] = tested on: HL-60 promyelocytic leukemia cells; assay: Apoptosis by Wright Giemsa-stained cytospin slides; settings: HL-60: SAHA 1.0 μM; Compound I 250 nM; 24 hr
Method: as §1, §2

[4] = tested on: Jurkat lymphoblastic leukemia; assay: Apoptosis by Wright Giemsa-stained cytospin slides; settings: Jurkat: SAHA 0.75 μM; Compound I 250 nM; 24 hr
Method: as §1, §2

[5] = tested on: NB4 promyelocytic leukemia cells; assay: Apoptosis by Wright Giemsa-stained cytospin slides; settings: NB4: SAHA 1.5 μM; Compound I 250 nM; 24 hr
Method: as §1, §2

K562 cells [6] = assay: Loss of mitochondrial membrane potential (DiOC6 flow cytometry); settings: 2.0 μM SAHA ± 250 nM Compound I
Method: Determination of MMP(ΔΨm): MMP is monitored using DiOC6 [36]. For each condition, 4×10^5 cells are incubated for 15 min at 37° C. in 1 ml of 40 nM DiOC6 (Calbiochem) and subsequently analyzed using a Becton Dickinson FACScan cytofluorometer with excitation and emission settings of 488 and 525 nm, respectively. Control experiments documenting the loss of ΔΨm are performed by exposing cells to 5 μM of […] cyanide m-chlorophenylhydrazone (Sigma Chemical Co.; 15 min, 37° C.), an uncoupling agent that abolishes the MMP.

SMILES	expression of phospho-JNK (JNK activation) (phospho-JNK)	release of cytochrome c, AIF, and Smac/DIABLO into the cytosolic S-100 cell fraction [1]	percentage of apoptotic cells (K562 cells [2]; 0 hours)	percentage of apoptotic cells (K562 cells [2]; 6 hours)	percentage of apoptotic cells (K562 cells [2]; 12 hours)	percentage of apoptotic cells (K562 cells [2]; 18 hours)	percentage of apoptotic cells (K562 cells [2]; 24 hours)	percentage of apoptotic cells (K562 cells [2]; 48 hours)	% of apoptotic cells (K562 cells [2]; Compound I 250 nM, 24 hr)	% of apoptotic cells (U937 monocytic leukemia)	% of apoptotic cells [3]	% of apoptotic cells [4]	% of apoptotic cells [5]	percentage of cells displaying loss of mitochondrial membrane potential (ΔΨm) (K562 cells [6]; 0 hours)	percentage of cells displaying loss of mitochondrial membrane potential (ΔΨm) (K562 cells [6]; 6 hours)	percentage of cells displaying loss of mitochondrial membrane potential (ΔΨm) (K562 cells [6]; 24 hours)	percentage of cells displaying loss of mitochondrial membrane potential (ΔΨm) (K562 cells [6]; 48 hours)	other results
Cc1ccc(NC(=O)c2ccc(CN3CCN(C)CC3)cc2)cc1Nc1nccc(-c2cccnc2)n1 [Compound I, N-{5-[4-(4-methyl-piperazino-methyl)-benzoylamido]-2-methylphenyl}-4-(3-pyridyl)-2-pyrimidine-amine]	fail to modify	minimal	0.6 ± 0.2%	1.1 ± 0.5%	2.1 ± 0.8%	3.3 ± 1.0%	3.5 ± 1.2%	21.8 ± 3.4%	8.3 ± 3.2%	0.9 ± 08%	3.1 ± 1.3%	1.1 ± 0.6%	1.8 ± 1.3%	5.7 ± 1.8%	8.8 ± 1.9%	17.8 ± 3.4%	41.3 ± 4.3%	apoptosis (K562 cells [2]; Table 1A, Compound I 100 nM, SAHA 0 or 2 μM, 24 hr): 1.1 ± 0.5%; apoptosis (K562 cells [2]; Table 1A, Compound I 150 nM, SAHA 0 or 2 μM, 24 hr): 1.3 ± 0.6%; apoptosis (K562 cells [2]; Table 1A, Compound I 200 nM, SAHA 0 or 2 μM, 24 hr): 1.6 ± 0.6%; apoptosis (K562 cells [2]; Table 1A, Compound I 250 nM, SAHA 0 or 2 μM, 24 hr): 2.8 ± 1.2%; apoptosis (K562 cells [2]; Table 1B, SAHA 0 μM, Compound I 250 nM, 24 hr): 2.7 ± 1.2%; Compound I + SB % of apoptotic cells (K562 cells [2]; Table 6, K562, 24 hr, sodium butyrate (SB; 1 or 2 mM), Compound I concentration not given): 10.3 ± 3.6%; cell death (K562 cells [2]; sensitive K562, Compound I (1.0 or 1.25 μM) for 48 hr, data not shown): ~100%
O=C(CCCCCCC(=O)Nc1ccccc1)NO [SAHA, suberoylanilide hydroxamic acid]	fail to modify	minimal	0.6 ± 0.2%	0.9 ± 0.2%	1.7 ± 0.5%	2.3 ± 0.8%	3.5 ± 1.1%	14.8 ± 2.1%	6.6 ± 3.8%	5.4 ± 1.9%	6.4 ± 1.9%	6.3 ± 3.2%	5.6 ± 2.3%	5.4 ± 1.6%	8.1 ± 1.9%	16.4 ± 2.9%	20.5 ± 2.8%	apoptosis (K562 cells [2]; Table 1B, SAHA 1 μM, Compound I 0 or 250 nM, 24 hr): 0.8 ± 0.4%; apoptosis (K562 cells [2]; Table 1B, SAHA 1.5 μM, Compound I 0 or 250 nM, 24 hr): 1.6 ± 0.7%; apoptosis (K562 cells [2]; Table 1B, SAHA 2.0 μM, Compound I 0 or 250 nM, 24 hr): 2.7 ± 0.7%; apoptosis (K562 cells [2]; Table 1B, SAHA 3.0 μM, Compound I 0 or 250 nM, 24 hr): 28.4 ± 3.2%; apoptosis (K562 cells [2]; Table 1B, SAHA […], Compound I 0 or 250 nM, 24 hr): 14.5 ± 1.3%; percentage of cells displaying loss of mitochondrial membrane potential (ΔΨm) (K562 cells [6]; 12 hours): 10.4 ± 2.1%; percentage of cells displaying loss of mitochondrial membrane potential (ΔΨm) (K562 cells [6]; 18 hours): 12.3 ± 2.8%
